This test concerns the target 18-kDa Translocator Protein (TSPO) (Homo sapiens, UniProt P30536, T147A). Briefly: radioligand competition against [3H]PK11195 in human platelet membranes. In kind it is binding. On the technique in general: Loss of bound radioactivity is the signal in a displacement assay; it reports binding, not function.

SMILES strings stand for the structures.

18-kDa Translocator Protein (TSPO), sequence (P30536 2-169 T147A): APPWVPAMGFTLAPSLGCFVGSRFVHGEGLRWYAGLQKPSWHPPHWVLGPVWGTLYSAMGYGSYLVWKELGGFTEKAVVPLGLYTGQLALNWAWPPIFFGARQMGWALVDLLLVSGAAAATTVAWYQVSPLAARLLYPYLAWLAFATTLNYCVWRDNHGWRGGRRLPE

`COc1ccccc1CN(C(C)=O)c1cnccc1Oc1ccccc1` [PBR28]: the Ki came to 2.17 ± 0.17 nM.

A word on the Ki: it is a dissociation constant, usually derived from enzyme kinetics or from competition with a known ligand. High values mean lower affinity, low ones higher affinity.

The record behind these values is PMC3323305 (2011).
